From patent US11890350B2, “Steroid acid-peptide based cytotoxic compounds” (DEFENCE THERAPEUTICS INC., priority 2021, dated 2024) come the findings set out here.

In data set [1] the test system is EL4 lymphoma. In words: EL4 tumor model in vivo. The following applies: for survival at day 40 / tumor growth: alone. On the set-up: species or system C57BL/6 mice. The source says:
FIGS. 4A to 4F show the antitumoral effect of CA-SV40 on EL4 lymphoma in vivo. […] EL4 tumors without any treatment (i.e., PBS) are shown in black, whereas anti-PD-1 treatment alone is in orange and anti-CTLA-4 treatment alone is in purple. […]
Female C57BL/6 mice (n=10/group) received a SC injection of 5×10^5 EL4 cells at Day 0. Five days later (appearance of palpable tumors˜40-60 mm^3), mice were SC-injected with PBS, CA-SV40, anti-PD-1, or anti-CTLA4, alone or in combination.
The apoptosis observations obtained in vitro prompted us to explore whether CA-SV40 administration to mice with pre-established tumors can trigger a therapeutic effect. First, CA-SV40 was delivered alone using three different doses (47 μM, 95 μM, and 190 μM) every 48 h following the appearance of palpable tumors (EL4) (FIG. 4A) for a total of 5 injections. […] To further improve this response, we next combined the highest tested CA-SV40 dose (delivered daily instead of every 48 h) with the immune-checkpoint inhibitors (ICIs) anti-PD-1 or anti-CTLA4 (FIG. 4D). […]

In the next data set the test system is EL4 cells. Nature of the data set: Cytochrome C cargo release cell death assay. The class given is cell-based. The method, then: FIGS. 3A and 3B show the ability of CA-SV40 to promote cargo release in the cytoplasm of target cells.
Cytochrome C is a protein that is normally entrapped in the mitochondria but can be released upon intrinsic signaling known to trigger apoptosis. An experiment was designed where recombinant cytochrome C was added to EL4 cells either alone or in combination with CA-SV40 (47 μM) (FIG. 3A). […] In addition, it may explain the increase in intracellular ROS levels as it can damage endosomes/vesicles responsible for intracellular ROS transport.

The test system of the next data set is 4T1 breast cancer cells. Nature of the data set: Annexin V apoptosis assessment by flow cytometry. The class given is cell-based. To be noted: 4T-1; 190 μM. For orientation: Flow cytometry measures light scatter and fluorescence of single cells or particles in a stream.
Data set [2] relates to bone marrow-derived dendritic cells. Nature of the data set: Annexin V apoptosis assessment on normal cells. The class given is cell-based, mouse. To be noted: 190 μM. The procedure: Mouse bone marrow derived DCs (BMDCs) were generated by flushing the whole marrow from mouse femurs using RPMI™ 1640 supplemented with 10% fetal bovine serum (FBS), 50 U/mL Penicillin-Streptomycin, 2 mM L-glutamine, 10 mM HEPES, 1% MEM Non-essential Amino Acids, 1 mM Sodium Pyruvate, 0.5 mM β-mercaptoethanol. Following red blood cell lysis, cells were then cultured in media supplemented with 50 ng/mL murine recombinant GM-CSF. The media was changed on days 2, 4, 6 and 8. On day 9, the media was replaced to include recombinant murine GM-CSF and LPS from Escherichia coli O111 (1 ng/mL) to stimulate DC maturation. Mature DCs were assessed by flow cytometry for their surface expression of CD3, CD19, NK1.1, CD11c, CD80, CD86, and I-A^b.

Data set [3] has as its system CT-26 colon carcinoma cells. Nature of the data set: Annexin V apoptosis assessment by flow cytometry. Type of data set: cell-based. To be noted: 190 μM.
The subject of data set [4] is EL4 lymphoma cells. In words: MitoSOX staining for ROS production. The following applies: CA-SV40 at the IC50 dose, up to 8 h. Type of data set: cell-based. The procedure: (§1) Percentages of double-positive stained cells is shown, which represents late apoptotic cells.
(§2) To further uncover the mechanism of cell death, we next investigated whether CA-SV40-triggered apoptosis is strictly occurring in the absence of necrosis. To do so, a co-staining experiment was conducted using propidium iodine (PI) and Annexin-V at different time points. […] Since a large number of anti-cancer molecules can trigger cell death via release or de novo production of reactive oxygen species (ROS), we next stained the EL4 lymphoma cells treated with CA-SV40 at the IC50 dose with MitoSOX™. […] This observation led us to test whether treatment with MitoTempo™ (blocking mitochondria-specific ROS) or N-acetylcysteine (NAC—building block for GSH) rescue from CA-SV40-triggered cell death.

For data set [5], the system named is EL4 lymphoma cells. Nature of the data set: Annexin V apoptosis assessment by flow cytometry. The class given is cell-based. The following applies: 190 μM. The method, then: Annexin-V staining percentage after treatment with different Cholic acid-NLS conjugates (190 μM) is shown relative to live EL4 lymphoma cells (i.e., PBS treated cancer cells) by flow cytometry.

The subject of another data set is macrophages. In words: Annexin V apoptosis assessment on normal cells. Type of data set: cell-based. The following applies: 190 μM.
Data set [6] relates to EL4 lymphoma. Nature of the data set: PI / Annexin-V co-staining time course. Type of data set: cell-based. The procedure: as §1, §2
A further data set concerns mesenchymal stem cells. In words: Annexin V apoptosis assessment on normal cells. The class given is cell-based. To be noted: 190 μM.
The test system of another data set is EL4 T-cell lymphoma. Nature of the data set: Cell death (kill) curve analysis by flow cytometry. The following applies: alone, at any of the concentrations tested.
In data set [7] the test system is EL4 lymphoma cells. Nature of the data set: Rescue from CA-SV40-triggered apoptosis by ROS blockers. The class given is cell-based. The method, then: as §1, §2
Where [8] appears, read: highest tested dose (190 μM), every 48 h, 5 injections.

Peptide text beside a SMILES is read from it. * marks the point of attachment. Cholyl = C[C@H](CCC(=O)*)[C@H]1CC[C@H]2[C@@H]3[C@H](O)C[C@@H]4C[C@H](O)CC[C@]4(C)[C@H]3C[C@H](O)[C@]12C

For `CSCC[C@H](NC(=O)[C@H](CS)NC(=O)CC[C@@H](C)[C@H]1CC[C@H]2[C@@H]3[C@H](O)C[C@@H]4C[C@H](O)CC[C@]4(C)[C@H]3C[C@H](O)[C@]12C)C(=O)NCC(=O)N[C@@H](CCCNC(=N)N)C(=O)N[C@H](C(=O)N[C@@H](CCCNC(=N)N)C(=O)N[C@H](C(=O)N[C@@H](CCCCN)C(=O)N[C@H](C(=O)N[C@H](C(=O)N[C@@H](CCCCN)C(=O)N[C@@H](CCCCN)C(=O)N[C@@H](C)C(=O)N[C@@H](C)C(=O)NCC(=O)NCC(=O)O)C(C)C)[C@@H](C)O)[C@@H](C)O)C(C)C` [CA-NLS1 RPS17] (Cholyl-CMGRVRTKTVKKAAGG-OH; N-terminus and C-terminus assumed), in the data set on EL4 lymphoma [1] (setting [8]), the “survival at day 40” value was determined as 20% and the tumor growth entry was “significantly delayed tumor growth”.

Turning to `CC[C@H](C)[C@H](NC(=O)[C@H](CCCNC(=N)N)NC(=O)[C@H](CCCCN)NC(=O)[C@H](CCSC)NC(=O)[C@H](CC(C)C)NC(=O)[C@H](Cc1c[nH]cn1)NC(=O)[C@@H](NC(=O)[C@@H](NC(=O)[C@H](Cc1ccc(O)cc1)NC(=O)CNC(=O)[C@H](C)NC(=O)[C@@H](NC(=O)[C@H](CCCCN)NC(=O)[C@H](CC(N)=O)NC(=O)[C@H](CCCNC(=N)N)NC(=O)[C@H](CC(C)C)NC(=O)[C@H](CCCCN)NC(=O)[C@H](CCCCN)NC(=O)[C@H](CO)NC(=O)[C@H](CS)NC(=O)CC[C@@H](C)[C@H]1CC[C@H]2[C@@H]3[C@H](O)C[C@@H]4C[C@H](O)CC[C@]4(C)[C@H]3C[C@H](O)[C@]12C)[C@@H](C)CC)C(C)C)[C@@H](C)O)C(=O)O` [CA-NLS3 RPS17] (Cholyl-CSKKLRNKIAGYVTHLMKRI-OH; N-terminus and C-terminus assumed), in the data set with EL4 lymphoma [1] (setting [8]), the “survival at day 40” value is reported as 20% and the tumor growth result is listed as “significantly delayed tumor growth”.

For `CC(C)[C@H](NC(=O)[C@H](CCCCN)NC(=O)[C@H](CCCNC(=N)N)NC(=O)[C@H](CCCCN)NC(=O)[C@H](CCCCN)NC(=O)[C@H](CCCCN)NC(=O)[C@@H]1CCCN1C(=O)CNC(=O)[C@H](Cc1ccc(O)cc1)NC(=O)CNC(=O)[C@H](CS)NC(=O)CC[C@@H](C)[C@H]1CC[C@H]2[C@@H]3[C@H](O)C[C@@H]4C[C@H](O)CC[C@]4(C)[C@H]3C[C@H](O)[C@]12C)C(=O)NCC(=O)NCC(=O)O` [CA-SV40] (Cholyl-CGYGPKKKRKVGG-OH; N-terminus and C-terminus assumed), the “increase in cell death” value with EL4 cells (CA-SV40 47 μM combined with cytochrome C) is reported as “three-fold”. Moreover, the cell death with EL4 cells (CA-SV40 47 μM in combination with cytochrome C) came out at 61%; in the data set on EL4 cells (before combination (weak CA-SV40 dose, 47 μM)), 19%. Also, the “cell death through apoptosis (Annexin V staining)” value (in the data set with 4T1 breast cancer cells; in [3]; with EL4 lymphoma cells [5]) was “triggers cell death through apoptosis” in each case. For the same compound, the “apoptosis in normal cells” value (in data set [2]; with macrophages; in the data set on mesenchymal stem cells) was “induce apoptosis” in each case. Further, the “ROS production (MitoSOX signal)” value with EL4 lymphoma cells [4] was “time-dependent ROS production”. Moreover, the “cytotoxicity compared with CA-GWG-SV40” value in the data set with EL4 lymphoma cells [5] is recorded as “notably higher”. In the data set on EL4 lymphoma [1] (highest dose daily, combined with anti-PD-1 or anti-CTLA4, vs CA-SV40 alone), the antitumoral response result is “significantly enhanced the antitumoral response”. Moreover, the tumor growth result with EL4 lymphoma [1] (highest dose delivered daily) is “significant delays in tumor growth”; with EL4 lymphoma [1] (setting [8]), “significantly delayed tumor growth”. Also, the “time at which apoptosis started occurring post-treatment” value with EL4 lymphoma [6] (PI/Annexin-V) is reported as 1 h. Moreover, the “time to complete death” value in the data set with EL4 lymphoma [6] (PI/Annexin-V) came to 8 h. Besides, the “necrotic cells (PI+/Annexin V−)” value in the data set with EL4 lymphoma [6] (time course) is reported as “no necrotic cells”.

As to “cytochrome C: recombinant cytochrome C protein, cargo added to EL4 cells [reference compound]”, the cell death entry in the data set on EL4 cells (recombinant cytochrome C alone) is listed as “did not trigger cell death”.

In the case of “SV40 NLS: NLS from SV-40 large T-antigen (e.g., PKKKRKV), unconjugated negative control”, the cytotoxic activity result in the data set with EL4 T-cell lymphoma is listed as “did not exhibit any cytotoxic activity”.

With `CC(=O)N[C@@H](CS)C(=O)O` [NAC, N-acetylcysteine], the “rescue from CA-SV40-triggered apoptosis” value in the data set with EL4 lymphoma cells [7] (CA-SV40 at IC50 dose) is given as “completely blocked apoptosis”; with EL4 lymphoma cells [7] (CA-SV40 at higher doses (IC100)), “incomplete but significant blockade”.
